# Experimental data published in patent US20110224079A1, “SPIROHETEROCYCLIC N-OXYAMIDES AS PESTICIDES” (SYNGENTA CROP PROTECTION LLC, priority 2008, published 2011).
# Experiments:
# pepper plants = conditions: in vivo
# Description: (§1) Comparison of the Insecticidal Activity and Crop Compatibility of Compounds According to the Invention with a Compound from the State of the Art (Compound No. A18 Described on Page 97 of WO09/049,851)
# (§2) (Mixed Population, Drench Application in Field Soil, Persistence, Plant Damage Evaluation)
# (§3) Samples are assessed 7 days after infestation on mortality. Treated plants are re-infested 7, 14, 21 and 28 days after application. Evaluation is always done 7 days after infestation. Plants are also checked for damage (phytotoxicity), visual assessment being made using a 0-100% rating scale (100%=total damage to plant; 0%=no damage to plant).
# [1] = system: Myzus persicae (green peach aphid); test: Example B15: drench activity (death rate, persistence) against Myzus persicae on pepper plants in field soil, comparison with A18; format: in vivo; conditions: for Mortality (%) xx days after application (drench, systemic action, persistence): 12.5 ppm drench, pepper plants in field soil, evaluation 7 days after infestation; for insecticidal action on Myzus persicae compared with state-of-the-art compound A18 (in words): drench application on pepper plants, summary of Table B15
# Description: as §1, §2, §3
# [2] = system: Myzus persicae (green peach aphid); test: Example B13: drench activity against Myzus persicae, pea seedlings in field soil; conditions: 168 h, read-out: drench activity (mortality)
# [3] = system: Aonidiella Aurantii (red scale); test: Example B12: activity against Aonidiella aurantii, dipped potato tubers; format: in vivo; conditions: 6-8 weeks after application, read-out: activity (number of crawlers of the next generation)
# Source text: Activity Against Aonidiella Aurantii (Red Scale)
# Treatment of potato tubers by dipping the in the test solution. One day later, tubers are infested with about 50 crawlers. 6-8 weeks after application samples are checked for the number of crawlers of the next generation (compared to the non treated samples).
# [4] = system: Myzus persicae (green peach aphid); test: Example B2: activity against Myzus persicae, pea seedling roots in test solution (systemic/feeding, curative); conditions: 144 h, read-out: activity (mortality)
# [5] = system: Aphis Craccivora (cowpea aphid); test: Example B11: translaminar activity against Aphis craccivora on French bean leaves; format: in vivo; conditions: 120 h, upper leaf side painted, aphids on lower side, 5 days
# Description: Translaminar Activity Against Aphis Craccivora (Cowpea Aphid)
# French bean leaves (Phaseolus vulgaris) are infested with about 20 mixed age individuals on the lower leaf side using clip cages. 1 day after the infestation, the upper side of the leaves is treated with the test solution by painting. 5 days later, samples are checked for mortality.
# [6] = system: Plutella xylostella (diamond back moth); test: Example B5: activity against Plutella xylostella, artificial diet in microtiter plate (larvicide, preventive); format: in vivo; conditions: 120 h, L2 larvae, 5 days, read-out: activity (larval mortality, antifeedant, growth regulation)
# Description: Activity Against Plutella xylostella (Diamond Back Moth)
# (Larvicide, Feeding/Residual Contact Activity, Preventive)
# 24-well microtiter plate (MTP) with artificial diet is treated with test solutions by pipetting. After drying, the MTP's are infested with larvae (L2)(10-15 per well). After an incubation period of 5 days, samples are checked for larval mortality, antifeedant and growth regulation.
# [7] = system: Myzus persicae (green peach aphid); test: Example B17: activity against Myzus persicae on sprayed pepper plants (feeding/residual contact); format: in vivo; conditions: 144 h, infested pepper plants sprayed, 6 days
# [8] = system: Bemisia tabaci (tobacco white fly); test: Example B7: activity against Bemisia tabaci, sprayed bean plants (larvicide, contact/feeding); format: in vivo; conditions: 504 h, bean plants with N-2 nymphs sprayed, three weeks, read-out: activity (efficacy, number of emerged adults)
# Procedure, shortened: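 After a 4-day egg-laying period and 7 further days, bean plants bearing hatched N-2 nymphs were sprayed with test solutions (2 replicates). Emerged adults were counted three weeks later; efficacy was derived by comparison with untreated samples.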
# [9] = system: Myzus persicae (green peach aphid); test: Example B1: activity against Myzus persicae, sprayed sunflower leaf discs (feeding/residual contact, preventive); conditions: foliar, 144 h, read-out: activity (mortality)
# [10] = system: Nilaparvata lugens (brown rice planthopper); test: Example B8: activity against Nilaparvata lugens, sprayed rice seedlings (larvicide, feeding/contact); conditions: in Oryza sativa, read-out: activity (mortality, growth regulation, effects on F1 generation)
# [11] = system: Aphis Craccivora (cowpea aphid); test: Example B9: activity against Aphis craccivora, sprayed pea seedlings (contact/feeding); format: in vivo; conditions: 144 h, infested pea seedlings sprayed, 6 days
# Source text: (§4) Activity Against Aphis Craccivora (Cowpea Aphid)
# (Mixed Population, Contact/Feeding)
# 6 days after treatment, samples are checked for mortality.
# [12] = system: Thrips tabaci (onion thrips); test: Example B3: activity against Thrips tabaci, sprayed sunflower leaf discs (feeding/residual contact, preventive); format: in vivo; conditions: foliar, 144 h, mixed population, 6 days
# Source text: Activity Against Thrips tabaci (Onion Thrips)
# (Mixed Population, Feeding/Residual Contact Activity, Preventive)
# [13] = system: Tetranychus urticae (two-spotted spider mite); test: Example B4: activity against Tetranychus urticae, sprayed bean leaf discs (feeding/residual contact, preventive); conditions: foliar, 192 h, read-out: activity (egg, larval and adult mortality)
# [14] = system: Aphis Craccivora (cowpea aphid); test: Example B10: activity against Aphis craccivora, pea seedling roots in test solution (systemic/feeding); format: in vivo; conditions: 144 h, roots of infested pea seedlings in test solution, 6 days
# Source text: as §4
# (Mixed Population, Systemic/Feeding)
# [15] = system: Frankliniella occidentalis (western flower thrips); test: Example B6: activity against Frankliniella occidentalis, bean leaf discs or bean plants; format: in vivo; conditions: foliar, 6 days (leaf discs) or 14 days (plants) after infestation, read-out: activity (reduction of treated population)
# Description: Activity Against Frankliniella occidentalis (Western Flower Thrips)
# Bean leaf discs on agar in petri dishes or bean plants in a spray chamber are treated with diluted test solutions. After drying leaf discs are cut and placed in plastic cups on the surface of an agar layer and infested with mixed population. 6 days (leaf discs) or 14 days (plants) after the infestation, samples are checked for reduction of treated population and compared to the non treated population.
# [16] = system: Aphis Craccivora (cowpea aphid); test: Example B16: activity against Aphis craccivora on broad bean plants, adjuvant effect, curative (EC050 spray); format: in vivo; conditions: 3 ppm, adjuvant (if any) 0.1% (v/v), 7 days after treatment
# Description: One day after infestation, plants are treated with diluted test solutions of the compound formulated as EC050 in a spray chamber (4 replicates). Optionally, an adjuvant is added with 0.1% (v/v) to the spray solution. 7 days after treatment samples are checked for mortality. Efficacy was calculated with the aid of Abbott's formula.
# [17] = infestation 0 days after application
# [18] = re-infestation 7 days after application
# [19] = re-infestation 14 days after application
# [20] = re-infestation 21 days after application
# [21] = re-infestation 28 days after application
SMILES,plant damage on pepper plants / plant compatibility (in words) (pepper plants),"Mortality (%) xx days after application (drench, systemic action, persistence) [1, 17]","Mortality (%) xx days after application (drench, systemic action, persistence) [1, 18]","Mortality (%) xx days after application (drench, systemic action, persistence) [1, 19]","Mortality (%) xx days after application (drench, systemic action, persistence) [1, 20]","Mortality (%) xx days after application (drench, systemic action, persistence) [1, 21]",mortality at 25 ppm [2],pest or weed control at 200 ppm [3],mortality at 400 ppm [4],mortality at 400 ppm [5],mortality at 400 ppm [6],mortality at 200 ppm [7],pest or weed control at 200 ppm [8],mortality at 400 ppm [9],mortality at 400 ppm [10],mortality at 400 ppm [11],mortality at 400 ppm [12],mortality at 400 ppm [13],mortality at 400 ppm [14],pest or weed control at 400 ppm [15],also measured
"CCOC(=O)OC1=C(c2c(C)cc(C)cc2C)C(=O)NC12CCN(OC)CC2 [A18, reference compound]",damages these to an untolerable high extend,100%,100%,98%,95%,95%,,,,,,,,,,,,,,,
"CCOC(=O)OC1=C(c2c(C)cc(C)cc2C)C(=O)N(OCOC)C12CCN(OC)CC2 [P1.7, carbonic acid ethyl ester 8-methoxy-1-methoxymethoxy-2-oxo-3-(2,4,6-trimethyl-phenyl)-1,8-diaza-spiro[4.5]dec-3-en-4-yl ester]",no plant damage at all,99%,100%,98%,98%,97%,> 80%,> 80%,> 80%,> 80%,> 80%,≥ 80%,> 80%,> 80%,> 80%,,,,,,insecticidal action on Myzus persicae compared with state-of-the-art compound A18 (in words) [1]: very similar to the action of the compound of the state of the art
CCOC(=O)OC1=C(c2c(C)cc(C)cc2C)C(=O)N(OC)C12CCN(OC)CC2 [P1.8],,,,,,,> 80%,> 80%,> 80%,> 80%,> 80%,≥ 80%,> 80%,> 80%,> 80%,> 80%,> 80%,> 80%,> 80%,,
"CCOC(=O)OC1=C(c2c(C)cc(C)cc2C)C(=O)N(OC2CCCO2)C12CCN(OC)CC2 (centres unmarked) [P1.9, Carbonic acid ethyl ester 8-methoxy-2-oxo-1-(tetrahydro-furan-2-yloxy)-3-(2,4,6-trimethyl-phenyl)-1,8-diaza-spiro[4.5]dec-3-en-4-yl ester]",,,,,,,> 80%,> 80%,> 80%,> 80%,> 80%,≥ 80%,> 80%,> 80%,> 80%,,> 80%,> 80%,> 80%,> 80%,
"CCOC(=O)OC1=C(c2c(C)cc(C)cc2C)C(=O)N(O)C12CCN(OC)CC2 [P1.11, carbonic acid ethyl ester 1-hydroxy-8-methoxy-2-oxo-3-(2,4,6-trimethyl-phenyl)-1,8-diaza-spiro[4.5]dec-3-en-4-yl ester]",no plant damage at all,97%,95%,95%,100%,100%,> 80%,> 80%,> 80%,,> 80%,≥ 80%,> 80%,> 80%,> 80%,,> 80%,> 80%,> 80%,,insecticidal action on Myzus persicae compared with state-of-the-art compound A18 (in words) [1]: very similar to the action of the compound of the state of the art
CCOC(=O)OC1=C(c2c(C)cc(C)cc2C)C(=O)N(OCC)C12CCN(OC)CC2 [P1.15],,,,,,,> 80%,> 80%,> 80%,> 80%,,≥ 80%,> 80%,> 80%,> 80%,> 80%,,> 80%,> 80%,> 80%,Abbott's efficacy (%) against Aphis craccivora ([16]; Table B16a): 3%; Abbott's efficacy (%) against Aphis craccivora ([16]; Table B16b): 11%
CCOC(=O)OC1=C(c2c(C)cc(Br)cc2C)C(=O)N(OCOC)C12CCN(OC)CC2 [P1.19],,,,,,,> 80%,> 80%,> 80%,> 80%,> 80%,≥ 80%,,> 80%,> 80%,,,,,,
"COCON1C(=O)C(c2c(C)cc(C)cc2C)=C(O)C12CCN(OC)CC2 [P2.6, 4-hydroxy-8-methoxy-1-methoxymethoxy-3-(2,4,6-trimethyl-phenyl)-1,8-diaza-spiro[4.5]dec-3-en-2-one]",,,,,,,> 80%,> 80%,> 80%,> 80%,> 80%,≥ 80%,> 80%,> 80%,> 80%,> 80%,> 80%,,> 80%,> 80%,
